We go through 1 compound from ChEMBL document CHEMBL5321267, “Phomactinine, the First Nitrogen-Bearing Phomactin, Produced by Biatriospora sp. CBMAI 1333” (J Nat Prod, 2023).

For this experiment, the target named is Platelet-activating factor receptor (Homo sapiens) (UniProt P25105). The experiment can be described thus: Antagonist activity at PAFR in human KB cells assessed as inhibition of cPAF induced IL-8 release at 10 to 25 uM preincubated for 24 hrs followed by cPAF stimulation and measured after 6 hrs by ELISA method. It counts as functional, cell-based. The note with it: filed as antagonist, dose 10-25 µM, time 30.0 hrs. On the technique in general: In an ELISA, binding on a coated surface is turned into a signal by an enzyme label.
Sequence of Platelet-activating factor receptor (Homo sapiens) (P25105 whole entry): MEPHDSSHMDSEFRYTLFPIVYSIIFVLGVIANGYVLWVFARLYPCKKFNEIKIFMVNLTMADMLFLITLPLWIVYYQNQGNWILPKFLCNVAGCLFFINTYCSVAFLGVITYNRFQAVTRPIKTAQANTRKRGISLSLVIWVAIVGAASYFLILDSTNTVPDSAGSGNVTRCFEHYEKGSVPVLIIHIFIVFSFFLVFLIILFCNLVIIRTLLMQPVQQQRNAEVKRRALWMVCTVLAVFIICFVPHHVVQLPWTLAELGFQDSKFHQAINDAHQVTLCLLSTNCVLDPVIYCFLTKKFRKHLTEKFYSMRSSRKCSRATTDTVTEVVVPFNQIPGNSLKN

Each structure is given as a SMILES string. Calls of active or inactive are those of the source. The calls are words filed in the database; no cut-off is given here.

On to `C/C1=C\CC[C@@]2(C)O[C@@H]2[C@@]23C(=O)NC=C2[C@@](C)(CC1)[C@H](C)C[C@@H]3O`, for which the inhibition result was “Active”.
